Numbered stars: 1 amine (or outer) side, 2 acyl side, 3 side chain; on linkers, the order of the positions; unused ones are H or OH. Square brackets hold non-standard residues; d marks the D form. Side chains are listed from the residue outwards. Peptide text beside a SMILES is read from it. * marks the point of attachment. X1 = O=C(O)CCCCCCCCCCCCCCCCC(=O)N[C@@H](CCC(=O)NCCCNCCCCNCCCN*)C(=O)O; C18 diacid = O=C(O)CCCCCCCCCCCCCCCCC(=O)*; γGlu = O=C(O)[C@H](CCC(=O)[*:2])N[*:1]; εLys = N[C@@H](CCCCN[*:1])C(=O)[*:2]; Stearoyl = CCCCCCCCCCCCCCCCCC(=O)*; NMeL = CN[C@@H](CC(C)C)C(=O)O; Suc = O=C(CCC(=O)[*:2])[*:1]; hSer = N[C@@H](CCO)C(=O)O; Nle = CCCC[C@H](N)C(=O)O; AEEA = NCCOCCOCC(=O)O

The target of data set [1] is T1, hNK2R (Homo sapiens, UniProt P21452).
T1 construct: host or cells: COS-7
T1 sequence (P21452 1-398): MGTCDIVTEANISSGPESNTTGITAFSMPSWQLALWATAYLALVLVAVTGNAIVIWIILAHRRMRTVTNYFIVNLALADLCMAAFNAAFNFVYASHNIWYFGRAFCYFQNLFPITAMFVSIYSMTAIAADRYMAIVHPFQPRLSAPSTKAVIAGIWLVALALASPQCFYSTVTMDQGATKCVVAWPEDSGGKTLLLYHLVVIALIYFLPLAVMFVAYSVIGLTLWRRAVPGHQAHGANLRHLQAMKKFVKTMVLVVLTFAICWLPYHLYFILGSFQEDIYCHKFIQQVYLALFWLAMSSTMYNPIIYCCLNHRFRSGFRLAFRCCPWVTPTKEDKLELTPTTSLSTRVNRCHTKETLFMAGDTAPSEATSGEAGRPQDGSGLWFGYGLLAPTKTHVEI
Description: Indirect human serum albumin binding by IP3 assay, 0.2% ovalbumin vs 1% HSA. Type of data set: cell-based. Here is the method:
Agonist-induced G-protein coupled receptor (GPCR) activation was measured by an Inositol-1,4,5-Trisphosphate [^3H] Radioreceptor Assay (IPs Assay). Assays were carried out using COS-7 cells transiently transfected by calcium phosphate transfection with a vector pcDNA3.1(+) encoding one of the indicated receptors (Genscript). Briefly, DNA mixed with CaCl2 (2 M) and TE-buffer (10 mM Tris-HCl, 1 mM EDTA, pH 7.5) was dropwise added to 2×HBS (50 mM HEPES, 280 mM NaCl, 1.5 mM NaH2PO4, pH 7.2) and incubated for 45 min at room temperature (22±2° C.). The mixture and a final concentration of 100 μM Chloroquine were added to the cells and left to incubate for 5 hours at 37° C. under standard cell culture conditions (10% CO2) before changing medium to fresh medium containing 5 μl/mL Myo-[2-^3H(N)]-inositol (labeling medium).
The indirect HSA binding IP3 assay takes advantage of the tachykinin receptors' ability to induce production of the inositol trisphosphate (IP3) second messenger upon agonist (ligand) binding on receptor expressing cells following an initial ^3H-inositol labeling period. The assay relies on the assumption that high peptide HSA binding will result in low receptor-mediated production of the second messenger IP3. Thus, the assay is an indirect assessment HSA binding.
Assay solutions used: Wash buffer (HBSS), Assay buffer 0.2% OvAlb (HBSS+10 mM LiCl and 0,2% w/v ovalbumin) or Assay buffer 1% HSA (HBSS+10 mM LiCl and 1% w/v HSA), Lysis buffer (10 mM formic acid), and SPA YSI beads (12.5 mg/ml in H2O). The assay was performed the day after transfection. Briefly, labelling medium was aspirated, and plates were washed ×1 in wash buffer before adding 100 μl assay buffer 0.2% OvAlb or assay buffer 1% HSA, pre-incubated for 30 min followed by 120 min incubation with agonist, both at 37° C. After incubation, plates were immediately placed on ice and the incubation medium was aspirated and 40 μl of 10 mM formic acid per well was added. Plates were incubated for at least 30 min on ice. 60 μl (1 mg/well) SPA YSI beads/well was pipetted into a solid white 96 wells plate and 35 μl of the lysis solution was transferred to the plate before covering plates with seal cover and shaking for 10 min. (max speed). Centrifuge plates and leave for 8 hours at room temperature before counting the plates in a MicroBeta plate counter (Perkin Elmer).

Data set [2] has as its target T1, hNK2R. Description: IP3 assay (inositol trisphosphate, 3H-myoinositol) in transiently transfected COS-7 cells. The format is cell-based. Conditions: COS-7 cells; for EC50: 0.2% ovalbumin buffer; for hNK2R, IP3 Efficacy: figure legends: percent of 10^-6 M NKA. The gist of the method: (§1)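 COS-7 cells were transiently transfected with receptor plasmid and labelled with ³H-myo-inositol. Cells were lysed in formic acid, and ³H-inositol phosphates were captured on SPA YSI beads and counted.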

For a further data set, the target named is T2, hNK1R (Homo sapiens, UniProt P25103).
T2 construct: host or cells: COS-7
T2 sequence (P25103 whole entry): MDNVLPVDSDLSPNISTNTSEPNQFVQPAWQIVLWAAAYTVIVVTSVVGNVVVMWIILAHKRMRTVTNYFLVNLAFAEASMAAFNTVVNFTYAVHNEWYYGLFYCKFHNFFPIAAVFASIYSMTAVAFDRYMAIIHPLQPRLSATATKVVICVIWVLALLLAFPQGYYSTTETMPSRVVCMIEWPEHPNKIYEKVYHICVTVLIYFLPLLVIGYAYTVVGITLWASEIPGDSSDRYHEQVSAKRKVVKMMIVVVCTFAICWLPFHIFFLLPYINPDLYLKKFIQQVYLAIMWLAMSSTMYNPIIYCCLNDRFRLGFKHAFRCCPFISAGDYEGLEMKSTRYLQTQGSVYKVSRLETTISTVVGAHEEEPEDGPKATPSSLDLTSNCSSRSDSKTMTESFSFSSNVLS
The data set is described as above. Conditions: COS-7 cells; for EC50: 0.2% ovalbumin buffer; for hNK1R, IP3 Efficacy: figure legends: percent of 10^-6 M NKA. Type of data set: cell-based. The gist of the method:
as §1

A further data set deals with T3, hNK3R (Homo sapiens, UniProt P29371).
T3 construct: host or cells: COS-7
T3 sequence (P29371 1-465): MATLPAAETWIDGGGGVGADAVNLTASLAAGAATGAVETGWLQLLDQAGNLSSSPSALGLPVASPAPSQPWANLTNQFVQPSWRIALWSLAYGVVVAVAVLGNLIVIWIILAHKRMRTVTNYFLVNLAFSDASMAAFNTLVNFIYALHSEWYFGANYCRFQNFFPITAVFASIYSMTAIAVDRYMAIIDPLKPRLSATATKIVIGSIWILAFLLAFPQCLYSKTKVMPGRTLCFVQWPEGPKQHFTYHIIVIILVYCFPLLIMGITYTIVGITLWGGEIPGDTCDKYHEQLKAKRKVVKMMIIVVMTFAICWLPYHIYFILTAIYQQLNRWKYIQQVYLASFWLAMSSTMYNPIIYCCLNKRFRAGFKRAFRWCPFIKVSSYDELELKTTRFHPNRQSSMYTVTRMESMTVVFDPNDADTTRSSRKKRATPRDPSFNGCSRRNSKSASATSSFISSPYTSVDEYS
The description is as above. Type of data set: cell-based. As to conditions: COS-7 cells; for EC50: 0.2% ovalbumin buffer, read-out: hNK3, IP3 EC50; for hNK3, IP3 Efficacy: figure legends: percent of 10^-6 M NKA. A digest of the protocol: as §1

The next data set can be described thus: in vivo. Also on record: species or system mice. As to conditions: mouse. Here is the method:
Pharmacokinetics: To evaluate the in vivo half-life of individual peptide analogues we used wild type lean mice at around 10 weeks of age injected once with a peptide analogue. For each sample time point 3-4 mice were used and blood was drawn from the submandibular vein at indicated time points following injection. Prior to injection mice were given ad libitum access to standard chow diet. Mice were subcutaneously injected with 0.5 mg/kg peptide analogue in a volume of 2 ml/kg. The amount of peptide analogue and metabolite(s) present in blood samples were measured by TF-LC-MS and MetID-LC-MS, respectively. Sample preparation: One volume of plasma is precipitated with three volumes of ethanol (with internal standard). The mixture is centrifuged at 13000 g for 20 min. One volume of supernatant is diluted with two volumes of Milli-Q water (1% formic acid). Calibration curve: peptide analogue was spiked into blank mouse plasma. Range: 0.5 to 2000 nM (linear 1/x2).

Data set [3] in a line: Energy expenditure screening by indirect calorimetry in diet-induced obese mice. The format is in vivo. As to conditions: DIO mice, 0.5 mg/kg s.c., increase over vehicle. The protocol:
Indirect calorimetry was used to evaluate the ability of individual peptide analogues to dose-dependently increase energy expenditure (EE) we used metabolic cages and indirect calorimetry measured by the Promethion system. To this end, oxygen consumption was used as a surrogate measure for EE. Substrate preference (fat or carbohydrate) was evaluated using the respiratory exchange ratio (RER). In parallel, behavioral information such as walking distance and water and food intake were recorded.
Prior to experimentation, DIO mice were transferred to habituation cages for at least 10 days (5 days outside and at least 5 days in the Sable Systems gas analyzer module) to acclimatize. For all in vivo compound tests for EE evaluation, mice received subcutaneous injections between 2 and 4 pm.
Energy expenditure screening: After habituation, mice were subcutaneously injected with 0.5 mg/kg peptide analogue in a volume of 2 ml/kg. Mice were injected q.a.d. (quaque altera die) and received a total of two injections. EE was evaluated and increase over vehicle was calculated as percent of mean oxygen consumption over a 30-hour period after injection. Prior to injection peptide analogues were dissolved to 0.25 mg/ml in in vivo buffer.

Setting [4] is: 0.2% ovalbumin, read-out: hNK2R, Albumin binding EC50 (nM)-ovalbumin.
The mark [5] stands for this setting: 1% HSA, read-out: hNK2R, Albumin binding EC50 (nM)-1% human serum albumin.

`CCCCCCCCCCCCCCCCCC(=O)N[C@@H](CCC(=O)NCCOCCOCC(=O)NCCOCCOCC(=O)N[C@@H](CC(=O)O)C(=O)N[C@@H](CCCCN)C(=O)N[C@@H](Cc1ccc(O)cc1)C(=O)N[C@H](C(=O)NCC(=O)N(C)[C@@H](CC(C)C)C(=O)N[C@@H](CCOC)C(N)=O)C(C)C)C(=O)O` [compound 391, *Asp;Lys;Tyr;Val;Gly;NmLeu;Metox;NH2] ({Stearoyl-γGlu-AEEA-AEEA}-DKYVG[NMeL][hSer](Me)-NH2): the “hNK2R, Albumin binding Efficacy (%)-ovalbumin” value on hNK2R [1] (0.2% ovalbumin) was determined as 100%. Moreover, the EC50 worked out at 0.9 nM at hNK2R [1] (setting [4]); 0.6 nM at hNK2R [1] (setting [5]); 0.9 nM on hNK2R [2]; 3.4 nM on hNK1R; 4 nM on hNK3R. Also, the “hNK2R, Albumin binding Efficacy (%)-1% human serum albumin” value on hNK2R [1] (1% HSA) came out at 90%. Besides, at hNK2R [2], the “hNK2R, IP3 Efficacy” value stood at 90%. Further, on hNK1R, the “hNK1R, IP3 Efficacy” value was determined as 100%. The “hNK3, IP3 Efficacy” value on hNK3R was determined as 100%.

As to `CCCCCCCCCCCCCCCCCC(=O)N[C@@H](CCC(=O)NCCOCCOCC(=O)NCCOCCOCC(=O)N[C@@H](CC(=O)O)C(=O)N[C@@H](CCCCN)C(=O)N[C@@H](Cc1ccc(O)cc1)C(=O)N[C@H](C(=O)NCC(=O)N(C)[C@@H](CC(C)C)C(=O)N[C@@H](CCCC)C(N)=O)C(C)C)C(=O)O` [compound 390, *Asp;Lys;Tyr;Val;Gly;NmLeu;Nle;NH2] ({Stearoyl-γGlu-AEEA-AEEA}-DKYVG[NMeL][Nle]-NH2), on hNK2R [1] (0.2% ovalbumin), the “hNK2R, Albumin binding Efficacy (%)-ovalbumin” value worked out at 100%. The EC50 is 1 nM on hNK2R [1] (setting [4]); 0.7 nM on hNK2R [1] (setting [5]); 1 nM at hNK2R [2]; 3.9 nM at hNK1R; 14 nM on hNK3R. In addition, the “hNK2R, Albumin binding Efficacy (%)-1% human serum albumin” value at hNK2R [1] (1% HSA) stood at 90%. Moreover, the “hNK2R, IP3 Efficacy” value at hNK2R [2] was 100%. In addition, at hNK1R, the “hNK1R, IP3 Efficacy” value amounted to 88%. Further, the “hNK3, IP3 Efficacy” value at hNK3R was found to be 100%. The compound further gave a half-life in the data set “in vivo” (sc, 0.5 mg/kg, Half-life) of 1.7 h.

Turning to `CCCC[C@H](NC(=O)[C@H](CC(C)C)N(C)C(=O)CNC(=O)[C@@H](NC(=O)[C@H](Cc1ccc(O)cc1)NC(=O)[C@H](CCCCN)NC(=O)[C@H](CC(=O)O)NC(=O)[C@@H](N)CCCCNC(=O)[C@@H](N)CCCCNC(=O)CC[C@H](NC(=O)CCCCCCCCCCCCCCCCC(=O)O)C(=O)O)C(C)C)C(N)=O` [compound 321, *Asp;Lys;Tyr;Val;Gly;NmLeu;Nle;NH2] (H-K([εLys-γGlu-C18 diacid])DKYVG[NMeL][Nle]-NH2), in data set [3], the “Energy expenditure (percent of vehicle; based on 30 h average vO2)” value is 5% of vehicle. In addition, in “in vivo”, the “Plasma exposure [2 h]” value came out at 2266 nM and the “Plasma exposure [26 h]” value is 763 nM.

Regarding `CCCC[C@H](NC(=O)[C@H](CC(C)C)N(C)C(=O)CNC(=O)[C@@H](NC(=O)[C@H](Cc1ccc(O)cc1)NC(=O)[C@H](CCCCN)NC(=O)[C@H](CC(=O)O)NC(=O)CCC(=O)NCCCNCCCCNCCCNC(=O)CC[C@H](NC(=O)CCCCCCCCCCCCCCCCC(=O)O)C(=O)O)C(C)C)C(N)=O` [compound 318, *Asp;Lys;Tyr;Val;Gly;NmLeu;Nle;NH2] ({X1-Suc}-DKYVG[NMeL][Nle]-NH2), in data set [3], the “Energy expenditure (percent of vehicle; based on 30 h average vO2)” value was 0% of vehicle. Further, the “Plasma exposure [26 h]” value in the data set “in vivo” is “BLLQ”. In addition, the level at time molar at 2 h in the data set “in vivo” (sc, 0.5 mg/kg) stood at 237 nM.

By EC50 is commonly meant the concentration giving half of the maximal effect. As a reminder, the half-life is how long it takes for the measured level to halve. A lower half-life goes with rapid decline.

Values taken from US20230406883A1, “COMPOUNDS AND THEIR USE IN TREATMENT OF TACHYKININ RECEPTOR MEDIATED DISORDERS” (Embark Biotech ApS, priority 2020, published 2023).
